Square brackets hold non-standard residues; d marks the D form. Peptide text beside a SMILES is read from it. * marks the point of attachment. Biotin = O=C1N[C@H]2[C@H](CS[C@H]2CCCCC(=O)*)N1; pS = N[C@@H](COP(=O)(O)O)C(=O)O
Legend:
[1] = system: T98G human glioblastoma cells; assay: Peptide incorporation into T98G cells (immunocytochemistry, cell counting); assay type: cell-based; conditions: 6 hours; for Peptide incorporation (% of cells): T98G cells, 10 µM biotinylated peptide, Alexa-labeled avidin/streptavidin fluorescence microscopy, minimum 200 cells per experiment, mean ± S.E.M., triplicated
Procedure, shortened: (§1)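 Cells on cover slips were cultured 6 h with 10 μM biotinylated peptide, permeabilized, and stained with anti-β-tubulin plus fluorescent streptavidin. By fluorescence/confocal microscopy, ≥200 cells per experiment were scored for peptide uptake and for a normal versus destroyed microtubule network; at least three repeats.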

[2] = system: T98G human glioblastoma cells; assay: Disintegration of the microtubule network in T98G cells (anti-tubulin immunostaining, cell counting); assay type: cell-based; conditions: 6 hours; for Disintegration of MT (% of cells): T98G cells, 10 µM biotinylated peptide, anti-tubulin immunostaining, minimum 200 cells per experiment, mean ± S.E.M., triplicated
Procedure, shortened: as §1

[3] = Secondary structure estimation from CD spectra; assay type: physicochemical; conditions: KF/phosphate buffer pH 7.4, 20 µM, Reed's reference set
Procedure: Circular dichroism (CD) spectra were measured in a J-810 CD spectrometer (Jasco, Japan) in step mode (bandwidth: 2 nm; interval: 0.1 nm; response time: 0.125 s). The spectra were averaged over 3 scans to increase the signal to noise ratio. To optimize the measurements, a 1 cm×0.2 cm mini-quartz cell with four windows (Hellema, Germany) was used in such a way that the spectra from 260 to 200 nm were measured with a 1 cm pathlength and those between 220 and 185 nm with 0.2 cm pathlength. After normalization for pathlength (1 cm), the superimposition of two separated spectra in the 200–220 nm region was verified and the entire spectra reconstituted. The temperature of measurement was controlled with a Peltier-effect temperature controller, and was usually 20°C. The structural stability of peptides was studied by measuring the variation in CD signal at 220 nm (bandwidth: 10 nm; interval: 1 s; response time: 0.5 s; pathlength: 1 cm) when the temperature was increased by 1°C/min from 20 to 85°C. All the CD experiments were performed with 20 µM peptide under 3 buffer conditions: pure water, 2 mM SDS and 10 mM potassium phosphate pH 7.4 with 200 mM KF.
The secondary structures were estimated from the CD spectra with Jasco secondary structure estimation software. The spectra from […] were decomposed to α-helix, β-sheet, β-turn and random coil elements using either Reed's or Yang's reference set as reference spectrum of each element as described, [38]. We usually obtained better fits using Reed's reference.

Row | Compound | Cell penetration / internalization in T98G cells (in words) ([1]; 10 µM, immunocytochemistry, compared to original NFL-TBS.40-63) | Peptide incorporation (% of cells) [1] | Effect on MT network of T98G / glioma cells (in words) ([2]; 10 µM, immunocytochemistry) | Disintegration of MT (% of cells) [2] | random coil content [3] | β-sheet content [3]
1 | CC(C)C[C@H](NC(=O)[C@H](CO)NC(=O)[C@H](CO)NC(=O)[C@H](CO)NC(=O)[C@@H](NC(=O)[C@@H]1CCCN1C(=O)[C@H](C)NC(=O)[C@H](CO)NC(=O)[C@H](Cc1ccc(O)cc1)NC(=O)[C@H](CO)NC(=O)[C@H](CO)NC(=O)[C@H](Cc1ccc(O)cc1)NC(=O)CCCC[C@@H]1SC[C@@H]2NC(=O)N[C@@H]21)C(C)C)C(=O)N[C@@H](CO)C(=O)N[C@H](C(=O)N[C@@H](CCCNC(=N)N)C(=O)N[C@@H](CCCNC(=N)N)C(=O)N[C@@H](CO)C(=O)N[C@@H](Cc1ccc(O)cc1)C(=O)N[C@@H](COP(=O)(O)O)C(=O)N[C@@H](CO)C(=O)N[C@@H](CO)C(=O)N[C@@H](CO)C(=O)NCC(=O)N[C@@H](CO)C(N)=O)C(C)C [Ser19SerP] (Biotin-YSSYSAPVSSSLSVRRSY[pS]SSSGS-NH2) | decreased internalization | 27.3±12.1 % of cells | not altered | 19.4±2.1 % of cells | 60% | 34%
2 | CC(C)C[C@H](NC(=O)[C@H](CO)NC(=O)[C@H](CO)NC(=O)[C@H](CO)NC(=O)[C@@H](NC(=O)[C@@H]1CCCN1C(=O)[C@H](C)NC(=O)[C@H](CO)NC(=O)[C@H](Cc1ccc(O)cc1)NC(=O)[C@H](CO)NC(=O)[C@H](C)NC(=O)[C@H](Cc1ccc(O)cc1)NC(=O)CCCC[C@@H]1SC[C@@H]2NC(=O)N[C@@H]21)C(C)C)C(=O)N[C@@H](CO)C(=O)N[C@H](C(=O)N[C@@H](CCCNC(=N)N)C(=O)N[C@@H](CCCNC(=N)N)C(=O)N[C@@H](CO)C(=O)N[C@@H](Cc1ccc(O)cc1)C(=O)N[C@@H](CO)C(=O)N[C@@H](CO)C(=O)N[C@@H](CO)C(=O)N[C@@H](CO)C(=O)NCC(=O)N[C@@H](CO)C(N)=O)C(C)C [Ser2Ala] (Biotin-YASYSAPVSSSLSVRRSYSSSSGS-NH2) | – | 5.9±6.4 % of cells | – | 23.5±1.1 % of cells | – | –
3 | CC(C)C[C@H](NC(=O)[C@H](CO)NC(=O)[C@H](CO)NC(=O)[C@H](CO)NC(=O)[C@@H](NC(=O)[C@H](C)NC(=O)[C@H](C)NC(=O)[C@H](CO)NC(=O)[C@H](Cc1ccc(O)cc1)NC(=O)[C@H](CO)NC(=O)[C@H](CO)NC(=O)[C@H](Cc1ccc(O)cc1)NC(=O)CCCC[C@@H]1SC[C@@H]2NC(=O)N[C@@H]21)C(C)C)C(=O)N[C@@H](CO)C(=O)N[C@H](C(=O)N[C@@H](CCCNC(=N)N)C(=O)N[C@@H](CCCNC(=N)N)C(=O)N[C@@H](CO)C(=O)N[C@@H](Cc1ccc(O)cc1)C(=O)N[C@@H](CO)C(=O)N[C@@H](CO)C(=O)N[C@@H](CO)C(=O)N[C@@H](CO)C(=O)NCC(=O)N[C@@H](CO)C(N)=O)C(C)C [Pro7Ala] (Biotin-YSSYSAAVSSSLSVRRSYSSSSGS-NH2) | – | 16.7±4.6 % of cells | – | 26.6±5.9 % of cells | – | –
4 | CC(C)C[C@H](NC(=O)[C@H](C)NC(=O)[C@H](CO)NC(=O)[C@H](CO)NC(=O)[C@@H](NC(=O)[C@@H]1CCCN1C(=O)[C@H](C)NC(=O)[C@H](CO)NC(=O)[C@H](Cc1ccc(O)cc1)NC(=O)[C@H](CO)NC(=O)[C@H](CO)NC(=O)[C@H](Cc1ccc(O)cc1)NC(=O)CCCC[C@@H]1SC[C@@H]2NC(=O)N[C@@H]21)C(C)C)C(=O)N[C@@H](CO)C(=O)N[C@H](C(=O)N[C@@H](CCCNC(=N)N)C(=O)N[C@@H](CCCNC(=N)N)C(=O)N[C@@H](CO)C(=O)N[C@@H](Cc1ccc(O)cc1)C(=O)N[C@@H](CO)C(=O)N[C@@H](CO)C(=O)N[C@@H](CO)C(=O)N[C@@H](CO)C(=O)NCC(=O)N[C@@H](CO)C(N)=O)C(C)C [Ser11Ala] (Biotin-YSSYSAPVSSALSVRRSYSSSSGS-NH2) | – | 2.5±2.5 % of cells | – | 15.9±6.5 % of cells | – | –
5 | CC(C)C[C@H](NC(=O)[C@H](CO)NC(=O)[C@H](CO)NC(=O)[C@H](CO)NC(=O)[C@@H](NC(=O)[C@@H]1CCCN1C(=O)[C@H](C)NC(=O)[C@H](CO)NC(=O)[C@H](Cc1ccc(O)cc1)NC(=O)[C@H](CO)NC(=O)[C@H](CO)NC(=O)[C@H](C)NC(=O)CCCC[C@@H]1SC[C@@H]2NC(=O)N[C@@H]21)C(C)C)C(=O)N[C@@H](CO)C(=O)N[C@H](C(=O)N[C@@H](CCCNC(=N)N)C(=O)N[C@@H](CCCNC(=N)N)C(=O)N[C@@H](CO)C(=O)N[C@@H](Cc1ccc(O)cc1)C(=O)N[C@@H](CO)C(=O)N[C@@H](CO)C(=O)N[C@@H](CO)C(=O)N[C@@H](CO)C(=O)NCC(=O)N[C@@H](CO)C(N)=O)C(C)C [Tyr1Ala] (Biotin-ASSYSAPVSSSLSVRRSYSSSSGS-NH2) | – | 0 % of cells | – | 24.1±4.6 % of cells | – | –
6 | CC(C)C[C@H](NC(=O)[C@H](CO)NC(=O)[C@H](CO)NC(=O)[C@H](CO)NC(=O)[C@@H](NC(=O)[C@@H]1CCCN1C(=O)[C@H](C)NC(=O)[C@H](CO)NC(=O)[C@H](Cc1ccc(O)cc1)NC(=O)[C@H](CO)NC(=O)[C@H](CO)NC(=O)[C@H](Cc1ccccc1)NC(=O)CCCC[C@@H]1SC[C@@H]2NC(=O)N[C@@H]21)C(C)C)C(=O)N[C@@H](CO)C(=O)N[C@H](C(=O)N[C@@H](CCCNC(=N)N)C(=O)N[C@@H](CCCNC(=N)N)C(=O)N[C@@H](CO)C(=O)N[C@@H](Cc1ccc(O)cc1)C(=O)N[C@@H](CO)C(=O)N[C@@H](CO)C(=O)N[C@@H](CO)C(=O)N[C@@H](CO)C(=O)NCC(=O)N[C@@H](CO)C(N)=O)C(C)C [Tyr1Phe] (Biotin-FSSYSAPVSSSLSVRRSYSSSSGS-NH2) | – | 56.3±2.8 % of cells | – | 41.2±4.0 % of cells | – | –
7 | CC(C)C[C@H](NC(=O)[C@H](CO)NC(=O)[C@H](CO)NC(=O)[C@H](CO)NC(=O)[C@@H](NC(=O)[C@@H]1CCCN1C(=O)[C@H](C)NC(=O)[C@H](CO)NC(=O)[C@H](Cc1ccc(O)cc1)NC(=O)[C@H](CO)NC(=O)[C@H](CO)NC(=O)[C@H](Cc1ccc(O)cc1)NC(=O)CCCC[C@@H]1SC[C@@H]2NC(=O)N[C@@H]21)C(C)C)C(=O)N[C@@H](CO)C(=O)N[C@H](C(=O)N[C@@H](CCCNC(=N)N)C(=O)N[C@@H](CCCNC(=N)N)C(=O)N[C@@H](CO)C(=O)N[C@@H](Cc1ccc(O)cc1)C(=O)N[C@@H](CO)C(=O)N[C@@H](CO)C(=O)N[C@@H](CO)C(=O)N[C@@H](CO)C(=O)NCC(=O)N[C@@H](CO)C(N)=O)C(C)C [Ala6Ala] (Biotin-YSSYSAPVSSSLSVRRSYSSSSGS-NH2) | – | 50.3±4.6 % of cells | – | 48.1±6.6 % of cells | – | –
8 | CC(C)C[C@H](NC(=O)[C@H](CO)NC(=O)[C@H](CO)NC(=O)[C@H](CO)NC(=O)[C@@H](NC(=O)[C@@H]1CCCN1C(=O)[C@H](C)NC(=O)[C@H](CO)NC(=O)[C@H](Cc1ccc(O)cc1)NC(=O)[C@H](CO)NC(=O)[C@H](CO)NC(=O)[C@H](Cc1ccc(O)cc1)NC(=O)CCCC[C@@H]1SC[C@@H]2NC(=O)N[C@@H]21)C(C)C)C(=O)N[C@@H](CO)C(=O)N[C@H](C(=O)N[C@@H](CCCNC(=N)N)C(=O)N[C@@H](CCCNC(=N)N)C(=O)N[C@@H](CO)C(=O)N[C@@H](Cc1ccc(O)cc1)C(=O)N[C@@H](CO)C(=O)N[C@@H](CO)C(=O)N[C@@H](CO)C(=O)N[C@@H](CO)C(=O)NCC(=O)N[C@@H](C)C(N)=O)C(C)C [Ser24Ala] (Biotin-YSSYSAPVSSSLSVRRSYSSSSGA-NH2) | – | 44.3±6.7 % of cells | – | 29.4±0.6 % of cells | – | –
9 | CC(C)C[C@H](NC(=O)[C@H](CO)NC(=O)[C@H](CO)NC(=O)[C@H](CO)NC(=O)[C@H](C)NC(=O)[C@@H]1CCCN1C(=O)[C@H](C)NC(=O)[C@H](CO)NC(=O)[C@H](Cc1ccc(O)cc1)NC(=O)[C@H](CO)NC(=O)[C@H](CO)NC(=O)[C@H](Cc1ccc(O)cc1)NC(=O)CCCC[C@@H]1SC[C@@H]2NC(=O)N[C@@H]21)C(=O)N[C@@H](CO)C(=O)N[C@H](C(=O)N[C@@H](CCCNC(=N)N)C(=O)N[C@@H](CCCNC(=N)N)C(=O)N[C@@H](CO)C(=O)N[C@@H](Cc1ccc(O)cc1)C(=O)N[C@@H](CO)C(=O)N[C@@H](CO)C(=O)N[C@@H](CO)C(=O)N[C@@H](CO)C(=O)NCC(=O)N[C@@H](CO)C(N)=O)C(C)C [Val8Ala] (Biotin-YSSYSAPASSSLSVRRSYSSSSGS-NH2) | – | 9.9±3.4 % of cells | – | 23.6±2.1 % of cells | – | –

— PMC3494675, “Structure-Function Analysis of the Glioma Targeting NFL-TBS.40-63 Peptide Corresponding to the Tubulin-Binding Site on the Light Neurofilament Subunit” (PLoS ONE, 2012)
